The test system of one assay is [^35 S-]PrP^C. It is filed as biochemical, Syrian hamster.
Another assay concerns proteinase K. The assay is classed as biochemical.
The target in another assay is [^35 S-]SHaPrP^C (Mesocricetus auratus, UniProt P04273). It is filed as biochemical.

Entries after “also recorded” stand apart in the source; their conditions may differ. Counter-ions that a name gives are not always drawn.

Sequence of [^35 S-]SHaPrP^C (P04273 23-254 limits assumed): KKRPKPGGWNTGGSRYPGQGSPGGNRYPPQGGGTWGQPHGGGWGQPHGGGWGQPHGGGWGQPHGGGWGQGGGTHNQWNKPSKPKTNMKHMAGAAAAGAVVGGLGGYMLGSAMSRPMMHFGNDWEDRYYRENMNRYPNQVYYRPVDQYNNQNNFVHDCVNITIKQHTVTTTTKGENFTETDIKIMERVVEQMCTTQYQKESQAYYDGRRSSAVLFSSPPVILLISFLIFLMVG

In the case of `N=C(N)N` [Gdn-HCl, guanidine hydrochloride], the “Requirement of Gdn-HCl for complex formation” value in assay [^35 S-]PrP^C is “seemed to be essential”. In addition, the “Reduction of proteinase K activity” value with proteinase K is on record as ~ 90%.
In the case of `CCCCCCCCCCCC(=O)N(C)CC(=O)O` [Sarkosyl], in assay [^35 S-]SHaPrP^C, the “Effect of Sarkosyl on PrP^C /PrP peptide complexes” value is “disrupted the prion protein complexes and rendered the PrP^C sensitive to protease activity; also recorded: disrupted the PrP^C /PrP peptide complexes and rendered the PrP^C sensitive to protease activity”.

(Values after patent US5750361A (priority 1995, dated 1998).)
